Results published in patent US20260345458A1, “Pharmaceutical, Dermatological or Cosmetic Compounds and Compositions for Reducing Melanin Synthesis, Stimulating Type I Collagen Production, Skin Depigmentation and/or Promoting a Skin Anti-Aging Effect in an Individual or Animal, Uses and Methods” (Chemyunion Ltda, priority 2022, published 2026).
Where a SMILES comes first, the peptide text is derived from it. The star is where a group is joined. Palmitoyl = CCCCCCCCCCCCCCCC(=O)*

What was measured:
rats = conditions: cited from earlier work
melanin synthesis = conditions: as reported in prior patent documents; cited from earlier work
[1] = test system: type I collagen in human skin fragments; experiment: Collagen synthesis stimulation in human skin fragments (ex vivo explants, immunofluorescence); format: cell-based; conditions: 72 h, ex vivo human skin explants (n=5), vs placebo, **p<0.01 (FIG. 3)
Description: (§1) FIG. 3. Semi-quantification of type I collagen levels. Data obtained by recording images of histological sections of human skin fragments previously treated with a formulation without active ingredient (Placebo) and treated with the same formulation containing the peptide SEQ ID No. 1 (Pal-Gln-His-Trp-Val-OH) (at 50 ppm or 100 ppm). **p<0.01 compared to the placebo group.
FIG. 4. Representative images of the effect of peptide SEQ ID No. 1 (Pal-Gln-His-Trp-Val-OH) on the synthesis of type I collagen in ex vivo skin fragments-immunofluorescence (400× magnification).
Example 2: Evaluation of Collagen Synthesis Stimulation in Human Skin Fragments
Skin explants (n=5) obtained from a surgical procedure performed by the ophthalmologic plastic surgery clinic were treated for 72 h with a formulation containing the peptide SEQ ID No. 1 (Pal-Gln-His-Trp-Val-OH) (at 50 ppm or 100 ppm) and with the same formulation without the addition of the peptide (placebo). After incubation with the test products as described above, the skin fragments were fixed in 4% paraformaldehyde (pH 7.4) for 24 h. […] The skin sections were then subjected to the specific labeling process for type I collagen for subsequent immunofluorescence analysis; the records were obtained using a fluorescence optical microscope coupled to a photographic camera.

[2] = test system: melanin synthesis in human skin fragments; experiment: Inhibition of melanin synthesis in human skin fragments (ex vivo explants, Fontana Masson staining); format: cell-based; conditions: 50 ppm; 72 h; ex vivo human skin explants (n=5); vs placebo; **p<0.01 (FIG. 1)
Description: as §1, with “1:” for “3.”, “melanin pigment” for “type I collagen”
FIG. 2: Representative images of the effect of peptide SEQ ID No. 1 (Pal-Gln-His-Trp-Val-OH) on melanin synthesis in ex vivo skin fragments-Fontana Masson staining (400× magnification).
Example 1: Evaluation of Inhibition of Melanin Synthesis in Human Skin Fragments
Skin explants (n=5), obtained from a surgical procedure performed by an ophthalmological plastic surgery clinic, were treated for 72 h with a formulation containing the peptide SEQ ID No. 1 (Pal-Gln-His-Trp-Val-OH), (at 50 ppm or 100 ppm) and with the same formulation without the addition of the peptide (placebo).
After incubation with the test products as described above, the skin fragments were fixed in 4% paraformaldehyde (pH 7.4) for 24 hours. […]
Subsequently, the slides were analyzed and recorded using an optical microscope coupled to a camera.

skin = conditions: cited from earlier work; for ochronosis: skin becomes more pigmented than at the beginning of treatment

O=c1cc(CO)occ1O [Kojic acid]
promotion of cancer (rats): has been found to promote the development of liver and thyroid cancer in rats

CCCCCCCCCCCCCCCC(=O)N[C@@H](Cc1ccc(O)cc1)C(=O)N[C@@H](Cc1ccc(O)cc1)C(=O)N[C@@H](CCSC)C(N)=O [Pal-TyrTyrMet-NH2] (Palmitoyl-Tyr-Tyr-Met-NH2)
activity on melanin synthesis / skin lightening (melanin synthesis): stimulating melanin synthesis

CCCCCCCCCCCCCCCC(=O)N[C@@H](CCC(N)=O)C(=O)N[C@@H](Cc1c[nH]cn1)C(=O)N[C@@H](Cc1c[nH]c2ccccc12)C(=O)N[C@H](C(=O)O)C(C)C [SEQ ID No. 1, Pal-Gln-His-Trp-Val-OH] (Palmitoyl-QHWV-OH)
stimulation of collagen I production compared to the placebo group ([1]; 50 ppm): 63% | increase in protein (type I collagen) synthesis compared to the placebo group ([1]; 100 ppm): 71% | reduction of melanin production compared to the placebo group [2]: 66%

OC[C@H]1O[C@@H](Oc2ccc(O)cc2)[C@H](O)[C@@H](O)[C@@H]1O [arbutin]
ochronosis (skin): can cause ochronosis

Oc1ccc(O)cc1 [hydroquinone]
ochronosis (skin): can cause ochronosis | effect on extracellular matrix fibers, adrenal glands, thyroid physiology and skin firmness (skin; topical application, studies suggest): can disrupt the fibers of the extracellular matrix (especially collagen and elastin), leading to changes in the adrenal glands and thyroid physiology, as well as loss of skin firmness

Caffeoyl-GlnHisGlyVal-OH
activity on melanin synthesis / skin lightening (melanin synthesis): has skin lightening activity due to its anti-inflammatory activity
